In US8153556B2, “Synergistic herbicidal compositions containing benfluralin” (Dow AgroSciences LLC, priority 2009, dated 2012):

What was measured:
Assay in all cases: Pre-emergence field weed control in winter wheat (visual rating)
Assay type in all cases: in vivo
[1] = tested on: ALOMY = Alopecurus agrestis L. (blackgrass)
Description: (§1) Soft winter wheat was planted using normal cultural practices in France and Germany in October under normal environmental conditions that allowed rapid germination and growth of wheat and weeds. Fields were prepared as per normal cultural practices, by applying appropriate fertilizers for normal winter wheat growth and yield, working and leveling the ground, and planting at normal time of year using 150 to 170 kg/ha seed with mechanical planters to maximize emergence, growth and yield. Weed infestations varied from 280 to 500 plants per square meter (plants/m^2).
(§2) Treatments consisted of benfluralin applied alone, as well as diflufenican, flufenacet and prosulfocarb applied alone, and in combination with benfluralin, to measure herbicidal weed control and any synergistic interactions. These treatments were applied using backpack sprayers applying spray volumes of 200-250 liters per hectare (L/ha) at a spray pressure of 230 KPA to plots 2.5 meters (m)×8 m, randomized 4 times per treatment. All treatments were applied pre-emergence to the soil, after planting the winter wheat. The pre-emergence treatments were activated with normal rainfall. Treatments were rated on a 0-100% scale, with 0%=no control and 100%=complete control.
(§3) Colby's equation was used to determine the herbicidal effects expected from the mixtures (Colby, S. R. Weeds 1967, 15, 20-22. Calculation of the synergistic and antagonistic response of herbicide combinations).
(§4) The following equation was used to calculate the expected activity of mixtures containing two active ingredients, A and B: Expected=A+B−(A×B/100)
(§5) A=observed efficacy of active ingredient A at the same concentration as used in the mixture.
(§6) B=observed efficacy of active ingredient B at the same concentration as used in the mixture.
(§7) The herbicide tankmix combinations tested, application rates and ratios employed, plant species tested, and results are given in Tables 1 to 6.

[2] = tested on: GALAP = Galium aparine L. (cleavers); conditions: benfluralin 1,000 g ai/ha, prosulfocarb 3,000 g ai/ha
Description: as §1, §2, §3, §4, §5, §6, §7

[3] = tested on: VERHE = Veronica hederifolia L. (ivyleaf speedwell); conditions: Test 2, 150 days after application, benfluralin 1,200 g ai/ha, flufenacet 240 g ai/ha
Description: as §1, §2, §3, §4, §5, §6, §7

[4] = tested on: GERRT = Geranium rotundifolium L. (round-leaved Cranesbill); conditions: benfluralin 1,000 g ai/ha
Description: as §1, §2, §3, §4, §5, §6, §7

[5] = Test 1, 13 days after application, benfluralin 1,200 g ai/ha, flufenacet 240 g ai/ha
[6] = Test 1, 27 days after application, benfluralin 1,000 g ai/ha, diflufenican 100 g ai/ha
[7] = Test 1, 27 days after application, benfluralin 1,000 g ai/ha, prosulfocarb 3,000 g ai/ha
[8] = Test 1, 174 days after application, benfluralin 1,000 g ai/ha, diflufenican 100 g ai/ha
[9] = Test 1, 174 days after application, benfluralin 1,000 g ai/ha, prosulfocarb 3,000 g ai/ha
[10] = Test 1, 236 days after application, benfluralin 1,000 g ai/ha, diflufenican 100 g ai/ha
[11] = Test 1, 236 days after application, benfluralin 1,000 g ai/ha, prosulfocarb 3,000 g ai/ha
[12] = Test 1, 236 days after application, benfluralin 1,200 g ai/ha, flufenacet 240 g ai/ha
[13] = Test 2, 169 days after application, benfluralin 1,000 g ai/ha, diflufenican 100 g ai/ha
[14] = Test 2, 189 days after application, benfluralin 1,000 g ai/ha, prosulfocarb 3,000 g ai/ha
[15] = Test 2, 189 days after application, benfluralin 1,200 g ai/ha, flufenacet 240 g ai/ha
[16] = Test 2, 199 days after application, benfluralin 1,000 g ai/ha, diflufenican 100 g ai/ha
[17] = Test 1, 27 days after application
[18] = Test 1, 174 days after application
[19] = Test 1, 236 days after application
[20] = Test 1, 27 days after application, diflufenican 100 g ai/ha
[21] = Test 1, 27 days after application, prosulfocarb 3,000 g ai/ha
[22] = Test 1, 174 days after application, prosulfocarb 3,000 g ai/ha
[23] = Test 1, 236 days after application, diflufenican 100 g ai/ha
[24] = Test 1, 236 days after application, prosulfocarb 3,000 g ai/ha

Row | Compound | % Visual Weed Control ALOMY Obs [1, 5] | % Visual Weed Control ALOMY Obs [1, 6] | % Visual Weed Control ALOMY Obs [1, 7] | % Visual Weed Control ALOMY Obs [1, 8] | % Visual Weed Control ALOMY Obs [1, 9] | % Visual Weed Control ALOMY Obs [1, 10] | % Visual Weed Control ALOMY Obs [1, 11] | % Visual Weed Control ALOMY Obs [1, 12] | % Visual Weed Control ALOMY Obs [1, 13] | % Visual Weed Control ALOMY Obs [1, 14] | % Visual Weed Control ALOMY Obs [1, 15] | % Visual Weed Control ALOMY Obs [1, 16] | % Visual Weed Control GALAP Obs [2, 17] | % Visual Weed Control GALAP Obs [2, 18] | % Visual Weed Control GALAP Obs [2, 19] | % Visual Weed Control VERHE Obs [3] | % Visual Weed Control GERRT Obs [4, 20] | % Visual Weed Control GERRT Obs [4, 21] | % Visual Weed Control GERRT Obs [4, 22] | % Visual Weed Control GERRT Obs [4, 23] | also measured
1 | CCCCN(CC)c1c([N+](=O)[O-])cc(C(F)(F)F)cc1[N+](=O)[O-] [Benfluralin, N-butyl-N-ethyl-2,6-dinitro-4-(trifluoromethyl)benzenamine] | 7% | 17% | 17% | 20% | 20% | 23% | 23% | 29% | 0% | 0% | 0% | 0% | 7% | 8% | 7% | 43% | 6% | 6% | 7% | 7% | % Visual Weed Control GERRT Obs [4, 24]: 7%
2 | O=C(Nc1ccc(F)cc1F)c1cccnc1Oc1cccc(C(F)(F)F)c1 [Diflufenican, N-(2,4-difluorophenyl)-2-[3-(trifluoromethyl)phenoxy]-3-pyridinecarboxamide] | – | 19% | – | 22% | – | 23% | – | – | 0% | – | – | 7% | – | – | – | – | 72% | – | – | 63% | –
3 | CC(C)N(C(=O)COc1nnc(C(F)(F)F)s1)c1ccc(F)cc1 [Flufenacet, N-(4-fluorophenyl)-N-(1-methylethyl)-2-[[5-(trifluoromethyl)-1,3,4-thiadiazol-2-yl]oxy]acetamide] | 26% | – | – | – | – | – | – | 80% | – | – | 82% | – | – | – | – | 0% | – | – | – | – | –
4 | CCCN(CCC)C(=O)SCc1ccccc1 [Prosulfocarb, S-(phenylmethyl) dipropylcarbamothioate] | – | – | 30% | – | 33% | – | 35% | – | – | 30% | – | – | 37% | 39% | 42% | – | – | 21% | 25% | – | % Visual Weed Control GERRT Obs [4, 24]: 27%
